For this data set the following is noted: Liquid, Closed cell (Static) method.

Numbers after ± are expanded uncertainties.

As a reminder, the vapor or sublimation pressure is the pressure of vapour in equilibrium with the condensed phase. As for `CC12CCC(CC1)C(C)(C)O2` [1,3,3-trimethyl-2-oxabicyclo[2.2.2]octane], the “vapor or sublimation pressure” value by setting is: (278.15 K) 0.071 ± 0.026 kPa; (283.15 K) 0.093 ± 0.026 kPa; (288.15 K) 0.13 ± 0.026 kPa; (293.15 K) 0.178 ± 0.026 kPa; (298.15 K) 0.253 ± 0.026 kPa; (303.15 K) 0.346 ± 0.026 kPa. The “vapor or sublimation pressure” value runs as follows: (308.15 K) 0.477 ± 0.026 kPa; (313.15 K) 0.627 ± 0.027 kPa; (318.15 K) 0.828 ± 0.027 kPa; (323.15 K) 1.101 ± 0.027 kPa.
For the compound `CCCO` [propan-1-ol], the “vapor or sublimation pressure” value (278.15 K) is 0.704 ± 0.027 kPa; the “vapor or sublimation pressure” value (283.15 K) was determined as 1.012 ± 0.027 kPa; the “vapor or sublimation pressure” value (288.15 K) turned out to be 1.449 ± 0.028 kPa; the “vapor or sublimation pressure” value (293.15 K) is reported as 2.038 ± 0.028 kPa; the “vapor or sublimation pressure” value (298.15 K) stood at 2.838 ± 0.029 kPa; the “vapor or sublimation pressure” value (303.15 K) was 3.866 ± 0.029 kPa. Moreover, the “vapor or sublimation pressure” value was 5.229 ± 0.03 kPa (308.15 K), 7.006 ± 0.032 kPa (313.15 K), 9.295 ± 0.035 kPa (318.15 K) and 12.18 ± 0.037 kPa (323.15 K).

The record behind these values is the NIST ThermoML archive (doi:10.1021/je300736k).
